# Experiments:
# [1] = test system: model of spinal trauma in the mouse; assay: Beam balance test in a model of spinal trauma in the mouse; assay type: in vivo; details: for Travel time (% motor function deficiency): 0.03 mg/kg po at +4 h and +6 h then daily; for Travel time (% motor function deficiency) / Travel time (% deficiency): 100% = trauma + carrier; for Travel time (% deficiency): 0.01 mg/kg po at +4 h then daily; for Balance beam test result (time to reach the opposite end of the beam): 0.01 mg/kg orally 4 h after lesion then daily, OF1 mice
# Procedure: The effects of 4-cyclopropylmethoxy-N-(3,5-dichloro-1-oxidopyridin-4-yl)-5-(methoxy)pyridine-2-carboxamide used according to the invention were evaluated in a model of spinal trauma in the mouse using the beam balance test (P. Barnéoud, NeuroReport 1997, 8, 2861-2865).
# The Beam Balance test consists in placing the mouse at the end of a horizontal beam 30 cm long and 1.5 cm wide, raised 20 cm above the ground. The time required for the mouse to reach the opposite end of the beam is measured. The test is stopped after 12 seconds.
# […] female OF1 mice (Iffa Credo Lyon, France) weighing 12 to 14 g are placed in experimental cages (32×21×14 cm) provided with an endless supply of food and water, at the controlled temperature of 22±1° C.
# The mice are subjected to a pre-learning phase which allows them to become familiar with the evaluation test and allows them to reach an optimal and identical level of performance.
# The animals are subsequently divided up into three groups, and then a trauma is induced in a controlled manner in two of the three groups of mice before the beginning of the test phase.
# This trauma consists of a lesion of the spinal cord located at the level of the thoracic vertebra Th8. The lesion is generated by 3 successive cycles of freezing-thawing by applying liquid nitrogen.
# The functional consequences of the trauma are then measured at days 2, 7, 14 and 21 and also at day 28.
# The following groups were formed: • Group 1 (no trauma) is composed of control animals which are not subjected to any trauma. • Group 2 (trauma alone) is composed of traumatized animals to which one dose per day of carrier (methyl-cellulose (MC) (0.6%) +tween-80 (0.5%) in water) is administered. • Group 3 (trauma+active ingredient 0.01 mg/kg at +4 hours) receives a solution containing 4-cyclopropylmethoxy-N-(3,5-dichloro-1-oxidopyridin-4-yl)-5-(methoxy)pyridine-2-carboxamide (0.01 mg/kg) in the carrier (MC (0.6%)+tween-80 (0.5%) in water), orally, 4 hours after the lesion, and then daily, orally, for 4 weeks after the trauma.
# An experiment similar to that of Example 1 was carried out by administering ((4R)-4-[3-(cyclopentyloxy)-4-methoxyphenyl]pyrrolidine-2-one) to 34-week-old OF1 mice (Charles River, France) weighing 12 to 14 g, in the treatment of spinal cord traumas.
# The mice were tested in the beam balance test, according to operating conditions identical to those described above.
# The following groups were formed: • Group A (no trauma) is composed of control animals which are not subjected to any trauma. • Group B (trauma alone) is composed of traumatized animals to which one dose per day of carrier (2% PEG 200) is administered. • Group C (trauma+active ingredient 0.03 mg/kg at +4 hours) receives a solution containing (R)-(−)-Rolipram (0.03 mg/kg) in the carrier (2% PEG 200), orally, 4 hours and 6 hours after the lesion, and then daily, orally, for 4 weeks after the trauma.
# The results obtained for each group of mice are expressed as percentage (%) deficiency of motor functions in the traumatized mice compared with the non-traumatized mice:
# To do this, the difference in time taken between the group of mice tested to which (R)-(−)-Rolipram was administered (group C) and the group of non-traumatized mice (group A) is measured and expressed as a percentage relative to the difference in time taken between the traumatized mice to which one dose per day of carrier was administered (group B) and the time taken by the non-traumatized mice (group A). This ratio therefore gives the percentage deficiency in motor functions of the traumatized mice compared with the non-traumatized mice.
# This calculation of the percentage deficiency of the mice tested is performed according to the following formula: % deficiency of group (c)=[(mean of the travel time of group C)−(mean of the travel time of group A)]/[(mean of the travel time of group B)−(mean of the travel time of group A)]
# ferret = assay: Evaluation of emetic effects in the ferret; assay type: in vivo; details: observed up to 6 hours after administration; for Emetic effects (vomiting): ferrets
# Procedure: The emetic capacity of 4-cyclopropylmethoxy-N-(3,5-dichloro-1-oxidopyridin-4-yl)-5-(methoxy)pyridine-2-carboxamide was evaluated in the ferret. Two groups of ferrets were used, the first being given the carrier (PEG 200) and the second being given 4-cyclopropyl-methoxy-N-(3,5-dichloro-1-oxidopyridin-4-yl)-5-(methoxy)pyridine-2-carboxamide in solution in the carrier (PEG 200), by oral gavage, at doses of 0.05 mg/kg and 0.1 mg/kg. The animals were observed continually for the 2 hours following administration and then every hour up to 6 hours after administration. The clinical signs (in particular retching and vomiting) were noted.
# The emetic capacity of […] was evaluated in the ferret. Two groups of ferrets were used, the first receiving the carrier (PEG200) and the second receiving […] in solution in the carrier (PEG200), by oral gavage, at doses of 0.05 mg/kg and 0.1 mg/kg. The animals were observed continually for the 2 hours following administration and then every hour up to 6 hours after administration. The clinical signs were noted.
structure (smiles),measurement,setting,value
"COc1ccc([C@@H]2CNC(=O)C2)cc1OC1CCCC1 [(R)-(−)-Rolipram, ((4R)-4-[3-(cyclopentyloxy)-4-methoxyphenyl]pyrrolidine-2-one), reference compound]",Travel time (% motor function deficiency),"[1]; D + 2, 0% = no trauma",110%
same,Travel time (% motor function deficiency),"[1]; D + 7, 0% = no trauma",67%
same,Travel time (% motor function deficiency),"[1]; D + 14, 0% = no trauma",48%
same,Travel time (% motor function deficiency),"[1]; D + 21, 0% = no trauma",122%
same,Travel time (% motor function deficiency),"[1]; D + 28, 0% = no trauma",108%
same,Travel time (% motor function deficiency),[1]; Mean of D + 2 to D + 28,91%
same,Emetic effects (vomiting),ferret; 0.05 mg/kg by oral gavage in PEG200,induces vomiting
same,Emetic effects (vomiting),ferret; 0.1 mg/kg by oral gavage in PEG200,induces vomiting
"COc1cnc(C(=O)Nc2c(Cl)c[n+]([O-])cc2Cl)cc1OCC1CC1 [4-cyclopropylmethoxy-N-(3,5-dichloro-1-oxidopyridin-4-yl)-5-(methoxy)pyridine-2-carboxamide]",Degree of motor function deficiency compared with (R)-(−)-Rolipram,"[1]; 0.01 mg/kg po versus (R)-(−)-Rolipram 0.03 mg/kg po, traumatized mice",less than that of the animals treated with (R)-(−)-Rolipram
same,Travel time (% deficiency),"[1]; D + 2, 0% = no trauma",84%
same,Balance beam test result (time to reach the opposite end of the beam),"[1]; D + 2 after trauma, test stopped after 12 seconds",10.71 s
same,Travel time (% deficiency),"[1]; D + 7, 0% = no trauma",72%
same,Balance beam test result (time to reach the opposite end of the beam),[1]; D + 7 after trauma,8.67 s
same,Travel time (% deficiency),"[1]; D + 14, 0% = no trauma",49%
same,Balance beam test result (time to reach the opposite end of the beam),[1]; D + 14 after trauma,6.35 s
same,Travel time (% deficiency),"[1]; D + 21, 0% = no trauma",60%
same,Balance beam test result (time to reach the opposite end of the beam),[1]; D + 21 after trauma,6.17 s
same,Travel time (% deficiency),"[1]; D + 28, 0% = no trauma",44%
same,Balance beam test result (time to reach the opposite end of the beam),[1]; D + 28 after trauma,5.18 s
same,Travel time (% deficiency),[1]; Mean of D + 2 to D + 28,62%
same,Re-establishment of motor functions versus non-treated traumatized animals,"[1]; traumatized mice, curative administration (group 3 vs group 2)",better re-establishment in terms of motor functions
same,Emetic effects (retching and vomiting),"ferret; 0.1 mg/kg by oral gavage in PEG 200, 5 ferrets",no retching or vomiting

# From patent publication US8592443B2, “Use of 4 cyclopropylmethoxy-N-(3,5 dichloro-1 oxido-pyridin-4 yl)-5-(methoxy)pyridine-2-carboxamide for the treatment of spinal cord traumas” (Sanofi, priority 2007, dated 2013)
